# Results: US9499547B2 (BAYER INTELLECTUAL PROPERTY GMBH, priority 2011, dated 2016)
# Assays:
# [1] = target: T1, human full-length MKNK1 (Homo sapiens (Human), UniProt Q9BUB5, T344D); assay: MKNK1 kinase assay (MKNK1 TR-FRET assay); assay type: biochemical; details: 10 μM ATP final conc.; 15 min preincubation with enzyme
# Method: MKNK1-inhibitory activity of compounds of the present invention was quantified employing the MKNK1 TR-FRET assay as described in the following paragraphs.
# As substrate for the kinase reaction the biotinylated peptide biotin-Ahx-[…] (C-terminus in amide form) was used which can be purchased e.g. form the company Biosyntan (Berlin-Buch, Germany).
# (§1) For the assay 50 nL of a 100 fold concentrated solution of the test compound in DMSO was pipetted into a black low volume 384 well microtiter plate (Greiner Bio-One, Frickenhausen, Germany), 2 μL of a solution of MKNK1 in aqueous assay buffer [50 mM HEPES pH 7.5, 5 mM magnesium chloride, 1.0 mM dithiothreitol, 0.005% (v/v) Nonidet-P40 (Sigma)] was added and the mixture was incubated for 15 min at 22° C. to allow pre-binding of the test compounds to the enzyme before the start of the kinase reaction. Then the kinase reaction was started by the addition of 3 μL of a solution of adenosine-tri-phosphate (ATP, 16.7 μM=>final conc. in the 5 μL assay volume is 10 μM) and substrate (0.1 μM=>final conc. in the 5 μL assay volume is 0.06 μM) in assay buffer and the resulting mixture was incubated for a reaction time of 45 min at 22° C. The concentration of MKNK1 was adjusted depending of the activity of the enzyme lot and was chosen appropriate to have the assay in the linear range, typical concentrations were in the range of 0.05 μg/ml. The reaction was stopped by the addition of 5 μL of a solution of TR-FRET detection reagents (5 nM streptavidine-XL665 [Cisbio Bioassays, Codolet, France] and 1 nM anti-ribosomal protein S6 (pSer236)-antibody from Invitrogen [#44921G] and 1 nM LANCE EU-W1024 labeled ProteinG [Perkin-Elmer, product no. AD0071]) in an aqueous EDTA-solution (100 mM EDTA, 0.1% (w/v) bovine serum albumin in 50 mM HEPES pH 7.5).
# (§2) The resulting mixture was incubated for 1 h at 22° C. to allow the formation of complex between the phosphorylated biotinylated peptide and the detection reagents. Subsequently the amount of phosphorylated substrate was evaluated by measurement of the resonance energy transfer from the Eu-chelate to the streptavidine-XL. Therefore, the fluorescence emissions at 620 nm and 665 nm after excitation at 350 nm were measured in a TR-FRET reader, e.g. a Rubystar (BMG Labtechnologies, Offenburg, Germany) or a Viewlux (Perkin-Elmer). The ratio of the emissions at 665 nm and at […] was taken as the measure for the amount of phosphorylated substrate. The data were normalised (enzyme reaction without inhibitor=0% inhibition, all other assay components but no enzyme=100% inhibition).
# [2] = target: T1, human full-length MKNK1; assay: MKNK1 kinase high ATP assay (TR-FRET-based); assay type: biochemical; details: 2 mM ATP final conc.; 15 min preincubation with enzyme
# Method: MKNK1 Kinase High ATP Assay
# MKNK1-inhibitory activity at high ATP of compounds of the present invention after their preincubation with MKNK1 was quantified employing the TR-FRET-based MKNK1 high ATP assay as described in the following paragraphs.
# As substrate for the kinase reaction the biotinylated peptide biotin-Ahx-[…] (C-terminus in amide form) was used, which can be purchased e.g. from the company Biosyntan (Berlin-Buch, Germany).
# as §1, with “3.3 mM=>final” for “16.7 μM=>final”, “2 mM)” for “10 μM)”, “30” for “45”, “0.003 μg/mL.” for “0.05 μg/ml.”
# as §2
# T1 sequence (Q9BUB5 other isoform, or with tags, fused parts or gaps T344D): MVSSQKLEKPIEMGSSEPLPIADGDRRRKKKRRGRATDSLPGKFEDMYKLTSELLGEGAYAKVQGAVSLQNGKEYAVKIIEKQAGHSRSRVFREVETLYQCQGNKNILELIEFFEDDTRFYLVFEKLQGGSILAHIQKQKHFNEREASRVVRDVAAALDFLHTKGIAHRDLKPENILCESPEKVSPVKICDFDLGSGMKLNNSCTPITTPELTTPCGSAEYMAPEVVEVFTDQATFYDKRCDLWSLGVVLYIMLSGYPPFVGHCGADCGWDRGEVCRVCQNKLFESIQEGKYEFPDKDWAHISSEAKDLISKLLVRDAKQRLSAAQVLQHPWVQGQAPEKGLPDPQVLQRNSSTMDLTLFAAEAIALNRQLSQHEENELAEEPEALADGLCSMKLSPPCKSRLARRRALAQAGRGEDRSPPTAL
SMILES,IC50 [1] [nM],IC50 [2] [nM]
"COc1cccc2oc(-c3cnc4ccc(OCCCCN)nn34)cc12 [Example 1, 4-{[3-(4-Methoxy-1-benzofuran-2-yl)imidazo[1,2-b]pyridazin-6-yl]oxy}butan-1-amine]",3,5
"N[C@H]1C[C@H](Oc2ccc3ncc(-c4cc5ccccc5o4)n3n2)C1 [Example 2, trans-3-{[3-(1-Benzofuran-2-yl)imidazo[1,2-b]pyridazin-6-yl]oxy}cyclobutanamine]",5,6
"N[C@H]1C[C@@H](Oc2ccc3ncc(-c4cc5ccccc5o4)n3n2)C1 [Example 3, cis-3-{[3-(1-Benzofuran-2-yl)imidazo[1,2-b]pyridazin-6-yl]oxy}cyclobutanamine]",4,17
"COc1cccc2oc(-c3cnc4ccc(OCCCN)nn34)cc12 [Example 4, 3-{[3-(4-Methoxy-1-benzofuran-2-yl)imidazo[1,2-b]pyridazin-6-yl]oxy}propan-1-amine]",5,15
"COc1cccc2oc(-c3cnc4ccc(OCCN)nn34)cc12 [Example 5, 2-{[3-(4-Methoxy-1-benzofuran-2-yl)imidazo[1,2-b]pyridazin-6-yl]oxy}ethanamine]",6,18
"COc1ccc2oc(-c3cnc4ccc(OCCN)nn34)cc2c1 [Example 6, 2-{[3-(5-Methoxy-1-benzofuran-2-yl)imidazo[1,2-b]pyridazin-6-yl]oxy}ethanamine]",6,13
"C[C@H](N)COc1ccc2ncc(-c3cc4ccccc4o3)n2n1 [Example 7, (2S)-1-{[3-(1-Benzofuran-2-yl)imidazo[1,2-b]pyridazin-6-yl]oxy}propan-2-amine]",7,18
"NCCCCOc1ccc2ncc(-c3cc4ccccc4o3)n2n1 [Example 8, 4-{[3-(1-Benzofuran-2-yl)imidazo[1,2-b]pyridazin-6-yl]oxy}butan-1-amine]",7,17
"COc1ccc2oc(-c3cnc4ccc(OCCCN)nn34)cc2c1 [Example 9, 3-{[3-(5-Methoxy-1-benzofuran-2-yl)imidazo[1,2-b]pyridazin-6-yl]oxy}propan-1-amine]",7,22
"NCCCOc1ccc2ncc(-c3cc4ccccc4o3)n2n1 [Example 11, 3-{[3-(1-Benzofuran-2-yl)imidazo[1,2-b]pyridazin-6-yl]oxy}propan-1-amine]",8,24
"NCCOCCOc1ccc2ncc(-c3cc4ccccc4o3)n2n1 [Example 21, 2-(2-{[3-(1-Benzofuran-2-yl)imidazo[1,2-b]pyridazin-6-yl]oxy}ethoxy)ethanamine]",–,14
"N[C@@H]1CCCC[C@H]1Oc1ccc2ncc(-c3cc4ccccc4o3)n2n1 [Example 23, (1R,2R)-2-{[3-(1-Benzofuran-2-yl)imidazo[1,2-b]pyridazin-6-yl]oxy}cyclohexanamine]",–,18
"NC1(COc2ccc3ncc(-c4cc5ccccc5o4)n3n2)CCC1 [Example 27, 1-({[3-(1-Benzofuran-2-yl)imidazo[1,2-b]pyridazin-6-yl]oxy}methyl)cyclobutanamine]",–,29
"C=CCCC(CN)Oc1ccc2ncc(-c3cc4ccccc4o3)n2n1 (centres unmarked) [Example 28, 2-{[3-(1-Benzofuran-2-yl)imidazo[1,2-b]pyridazin-6-yl]oxy}hex-5-en-1-amine]",–,45
"NCC(CN1CCOCC1)Oc1ccc2ncc(-c3cc4ccccc4o3)n2n1 (centres unmarked) [Example 31, 2-{[3-(1-Benzofuran-2-yl)imidazo[1,2-b]pyridazin-6-yl]oxy}-3-(morpholin-4-yl)-propan-1-amine]",–,78
"NC(COc1ccc2ncc(-c3cc4ccccc4o3)n2n1)C1CCOCC1 (centres unmarked) [Example 32, 2-{[3-(1-Benzofuran-2-yl)imidazo[1,2-b]pyridazin-6-yl]oxy}-1-(tetrahydro-2H-pyran-4-yl)ethanamine]",–,79
"NCC(Cc1ccc(F)cc1)Oc1ccc2ncc(-c3cc4ccccc4o3)n2n1 (centres unmarked) [Example 53, 2-{[3-(1-Benzofuran-2-yl)imidazo[1,2-b]pyridazin-6-yl]oxy}-3-(4-fluorophenyl)-propan-1-amine]",–,46
"NCC(Cc1ccncc1)Oc1ccc2ncc(-c3cc4ccccc4o3)n2n1 (centres unmarked) [Example 54, 2-{[3-(1-Benzofuran-2-yl)imidazo[1,2-b]pyridazin-6-yl]oxy}-3-(pyridin-4-yl)-propan-1-amine]",–,19
"NC[C@H](Oc1ccc2ncc(-c3cc4ccccc4o3)n2n1)c1cccnc1 [Example 55, (2R)-2-{[3-(1-benzofuran-2-yl)imidazo[1,2-b]pyridazin-6-yl]oxy}-2-(pyridin-3-yl)ethanamine]",16,–
"NCC(Oc1ccc2ncc(-c3cc4ccccc4o3)n2n1)c1ccc(F)cc1 (centres unmarked) [Example 56, 2-{[3-(1-benzofuran-2-yl)-imidazo-[1,2-b]-pyridazin-6-yl]oxy}-2-(4-fluoro-phenyl)-ethanamine]",40,–
"NCC(Oc1ccc2ncc(-c3cc4ccccc4o3)n2n1)c1ccccn1 (centres unmarked) [Example 57, 2-{[3-(1-benzofuran-2-yl)-imidazo-[1,2-b]-pyridazin-6-yl]oxy}-2-(pyridin-2-yl)-ethanamine]",94,–
"CC(C)Oc1cccc(C(CN)Oc2ccc3ncc(-c4cc5ccccc5o4)n3n2)c1 (centres unmarked) [Example 58, 2-{[3-(1-benzofuran-2-yl)-imidazo-[1,2-b]-pyridazin-6-yl]oxy}-2-(3-iso-propoxy-phenyl)-ethanamine]",20,–
"NCC(Oc1ccc2ncc(-c3cc4ccccc4o3)n2n1)c1cccc(C(F)(F)F)c1 (centres unmarked) [Example 59, 2-{[3-(1-benzofuran-2-yl)-imidazo-[1,2-b]-pyridazin-6-yl]oxy}-2-[3-(tri-fluoro-methyl)-phenyl]-ethanamine]",37,–
"NCC(Oc1ccc2ncc(-c3cc4ccccc4o3)n2n1)c1ccc(F)cc1F (centres unmarked) [Example 60, 2-{[3-(1-benzofuran-2-yl)-imidazo-[1,2-b]-pyridazin-6-yl]oxy}-2-(2,4-di-fluoro-phenyl)-ethanamine]",39,–
"N[C@H](COc1ccc2ncc(-c3cc4ccccc4o3)n2n1)c1ccc(F)cc1 [Example 61, (1S)-2-{[3-(1-benzofuran-2-yl)imidazo[1,2-b]pyridazin-6-yl]oxy}-1-(4-fluorophenyl)ethanamine]",29,–
"N[C@H](COc1ccc2ncc(-c3cc4ccccc4o3)n2n1)c1ccc(Cl)cc1 [Example 62, (1S)-2-{[3-(1-benzofuran-2-yl)imidazo[1,2-b]pyridazin-6-yl]oxy}-1-(4-chlorophenyl)ethanamine]",31,–
"NC(COc1ccc2ncc(-c3cc4ccccc4o3)n2n1)c1cccnc1 (centres unmarked) [Example 63, 2-{[3-(1-benzofuran-2-yl)imidazo[1,2-b]pyridazin-6-yl]oxy}-1-(pyridin-3-yl)ethanamine]",54,–
NCCC(Oc1ccc2ncc(-c3cc4ccccc4o3)n2n1)c1ccc(F)cc1 (centres unmarked) [Example 64],57,–
